# Data: ChEMBL document CHEMBL1275577, “Study of the in vitro activities of rifaximin and comparator agents against 536 anaerobic intestinal bacteria from the perspective of potential utility in pathology involving bowel flora” (Antimicrob Agents Chemother, 2009)
# Legend:
# Assay type in all cases: functional
# [1] = test system: Bifidobacterium pseudolongum; assay: Antimicrobial activity against Bifidobacterium pseudolongum by Wadsworth agar dilution method
# [2] = test system: Clostridium sporogenes; assay: Antimicrobial activity against Clostridium sporogenes by Wadsworth agar dilution method
# [3] = test system: Blautia producta; assay: Antimicrobial activity against Ruminococcus productus by Wadsworth agar dilution method
# [4] = test system: Catenibacterium mitsuokai; assay: Antimicrobial activity against Catenibacterium mitsuokai by Wadsworth agar dilution method
# [5] = test system: Clostridium spiroforme; assay: Antimicrobial activity against Clostridium spiroforme by Wadsworth agar dilution method; settings: Thomasclavelia spiroformis
# [6] = test system: Porphyromonas asaccharolytica; assay: Antimicrobial activity against Porphyromonas asaccharolyticus by Wadsworth agar dilution method
# [7] = test system: Bilophila wadsworthia; assay: Antimicrobial activity against Bilophila wadsworthia by Wadsworth agar dilution method in presence of 1% pyruvic acid
# [8] = test system: Fusobacterium mortiferum; assay: Antimicrobial activity against Fusobacterium mortiferum by Wadsworth agar dilution method in presence of beta-lactamase inhibitor Sulbactam
# [9] = test system: Clostridium beijerinckii; assay: Antimicrobial activity against Clostridium beijerinckii by Wadsworth agar dilution method
# [10] = test system: Eubacterium saburreum; assay: Antimicrobial activity against Eubacterium saburreum by Wadsworth agar dilution method; settings: Lachnoanaerobaculum saburreum
# [11] = test system: Actinomyces viscosus; assay: Antimicrobial activity against Actinomyces viscosus by Wadsworth agar dilution method
# [12] = test system: Eubacterium callanderi; assay: Antimicrobial activity against Eubacterium callanderi by Wadsworth agar dilution method
# [13] = test system: Lactobacillus jensenii; assay: Antimicrobial activity against Lactobacillus jensenii by Wadsworth agar dilution method
# [14] = test system: Peptoniphilus harei; assay: Antimicrobial activity against Peptoniphilus harei by Wadsworth agar dilution method
# [15] = test system: Clostridium perfringens; assay: Antimicrobial activity against Clostridium perfringens by Wadsworth agar dilution method
# [16] = test system: Porphyromonas somerae; assay: Antimicrobial activity against Porphyromonas somerae by Wadsworth agar dilution method
# [17] = test system: Eggerthella lenta; assay: Antimicrobial activity against Eggerthella lenta by Wadsworth agar dilution method
# [18] = test system: Propionibacterium propionicum; assay: Antimicrobial activity against Propionibacterium propionicum by Wadsworth agar dilution method; settings: Arachnia propionica
# [19] = test system: Clostridium sp.; assay: Antimicrobial activity against Clostridium sp. by Wadsworth agar dilution method
# [20] = test system: Clostridium aminobutyricum; assay: Antimicrobial activity against Clostridium aminobutyricum by Wadsworth agar dilution method
# [21] = test system: Clostridium cocleatum; assay: Antimicrobial activity against Clostridium cocleatum by Wadsworth agar dilution method; settings: Thomasclavelia cocleata
# [22] = test system: Peptostreptococcus anaerobius; assay: Antimicrobial activity against Peptostreptococcus anaerobius by Wadsworth agar dilution method
# [23] = test system: Lactiplantibacillus plantarum; assay: Antimicrobial activity against Lactobacillus plantarum by Wadsworth agar dilution method
# [24] = test system: Fusobacterium necrophorum; assay: Antimicrobial activity against Fusobacterium necrophorum by Wadsworth agar dilution method
# [25] = test system: [Clostridium] innocuum; assay: Antimicrobial activity against Clostridium innocuum by Wadsworth agar dilution method
# [26] = test system: Bacteroides thetaiotaomicron; assay: Antimicrobial activity against Bacteroides thetaiotaomicron by Wadsworth agar dilution method
# [27] = test system: Ruminococcus torques; assay: Antimicrobial activity against Ruminococcus torques by Wadsworth agar dilution method; settings: Mediterraneibacter torques
# [28] = Antimicrobial activity against Bifidobacterium pseudocatenulatum by Wadsworth agar dilution method
# [29] = test system: Bifidobacterium bifidum; assay: Antimicrobial activity against Bifidobacterium bifidum by Wadsworth agar dilution method
# [30] = test system: Clostridium acetobutylicum; assay: Antimicrobial activity against Clostridium acetobutylicum by Wadsworth agar dilution method
# [31] = test system: Clostridium glycolicum; assay: Antimicrobial activity against Clostridium glycolicum by Wadsworth agar dilution method; settings: Terrisporobacter glycolicus
# [32] = test system: Prevotella melaninogenica; assay: Antimicrobial activity against Prevotella melaninogenica by Wadsworth agar dilution method
# [33] = test system: Prevotella disiens; assay: Antimicrobial activity against Prevotella disiens by Wadsworth agar dilution method
# [34] = test system: Atopobium minutum; assay: Antimicrobial activity against Atopobium minutum by Wadsworth agar dilution method
# [35] = test system: Desulfovibrio sp.; assay: Antimicrobial activity against Desulfovibrio sp. by Wadsworth agar dilution method
# [36] = test system: Porphyromonas uenonis; assay: Antimicrobial activity against Porphyromonas uenonis by Wadsworth agar dilution method
# [37] = test system: Limosilactobacillus fermentum; assay: Antimicrobial activity against Lactobacillus fermentum by Wadsworth agar dilution method
# [38] = test system: Bacteroides caccae; assay: Antimicrobial activity against Bacteroides caccae by Wadsworth agar dilution method
# [39] = test system: Anaerococcus prevotii; assay: Antimicrobial activity against Anaerococcus prevotii by Wadsworth agar dilution method
# [40] = test system: Eubacterium biforme; assay: Antimicrobial activity against Eubacterium biforme by Wadsworth agar dilution method; settings: Holdemanella biformis
# [41] = test system: Clostridium septicum; assay: Antimicrobial activity against Clostridium septicum by Wadsworth agar dilution method
# [42] = test system: Clostridioides difficile; assay: Antimicrobial activity against Clostridium difficile by Wadsworth agar dilution method
# [43] = test system: Propionibacterium avidum; assay: Antimicrobial activity against Propionibacterium avidum by Wadsworth agar dilution method; settings: Cutibacterium avidum
# [44] = test system: Lactobacillus acidophilus; assay: Antimicrobial activity against Lactobacillus acidophilus by Wadsworth agar dilution method
# [45] = test system: Schaalia odontolytica; assay: Antimicrobial activity against Actinomyces odontolyticus by Wadsworth agar dilution method
# [46] = test system: Eubacterium rectale; assay: Antimicrobial activity against Eubacterium rectale by Wadsworth agar dilution method; settings: Agathobacter rectalis
# [47] = test system: Bacteroides ovatus; assay: Antimicrobial activity against Bacteroides ovatus by Wadsworth agar dilution method
smiles,measurement,setting,value
CC(=O)Oc1ccccc1C(=O)Nc1ncc([N+](=O)[O-])s1 [NITAZOXANIDE],MIC50,[1],2 µg/mL
same,MIC90,[1],32 µg/mL
same,MIC50,[2],0.5 µg/mL
same,MIC90,[2],4 µg/mL
same,MIC50,[3],0.5 µg/mL
same,MIC90,[3],1 µg/mL
same,MIC50,[4],2 µg/mL
same,MIC90,[4],32 µg/mL
same,MIC50,[5],0.5 µg/mL
same,MIC90,[5],4 µg/mL
same,MIC50,[6],0.5 µg/mL
same,MIC90,[6],1 µg/mL
same,MIC50,[7],4 µg/mL
same,MIC90,[7],4 µg/mL
same,MIC50,[8],1 µg/mL
same,MIC90,[8],8 µg/mL
same,MIC50,[9],0.5 µg/mL
same,MIC90,[9],4 µg/mL
same,MIC50,[10],2 µg/mL
same,MIC90,[10],32 µg/mL
same,MIC50,[11],2 µg/mL
same,MIC90,[11],32 µg/mL
same,MIC50,[12],2 µg/mL
same,MIC90,[12],32 µg/mL
same,MIC50,[13],2 µg/mL
same,MIC90,[13],32 µg/mL
same,MIC50,[14],0.5 µg/mL
same,MIC90,[14],1 µg/mL
same,MIC50,[15],2 µg/mL
same,MIC90,[15],4 µg/mL
same,MIC50,[16],0.5 µg/mL
same,MIC90,[16],1 µg/mL
same,MIC50,[17],2 µg/mL
same,MIC90,[17],32 µg/mL
same,MIC50,[18],2 µg/mL
same,MIC90,[18],32 µg/mL
same,MIC50,[19],0.5 µg/mL
same,MIC90,[19],4 µg/mL
same,MIC50,[20],0.5 µg/mL
same,MIC90,[20],4 µg/mL
same,MIC50,[21],0.5 µg/mL
same,MIC90,[21],4 µg/mL
same,MIC50,[22],0.5 µg/mL
same,MIC90,[22],1 µg/mL
same,MIC50,[23],2 µg/mL
same,MIC90,[23],32 µg/mL
same,MIC50,[24],1 µg/mL
same,MIC90,[24],8 µg/mL
same,MIC50,[25],1 µg/mL
same,MIC90,[25],4 µg/mL
same,MIC50,[26],2 µg/mL
same,MIC90,[26],8 µg/mL
same,MIC50,[27],0.5 µg/mL
same,MIC90,[27],1 µg/mL
same,MIC50,[28],2 µg/mL
same,MIC90,[28],32 µg/mL
same,MIC50,[29],2 µg/mL
same,MIC90,[29],32 µg/mL
same,MIC50,[30],0.5 µg/mL
same,MIC90,[30],4 µg/mL
same,MIC50,[31],0.5 µg/mL
same,MIC90,[31],4 µg/mL
same,MIC50,[32],4 µg/mL
same,MIC90,[32],8 µg/mL
same,MIC50,[33],4 µg/mL
same,MIC90,[33],8 µg/mL
same,MIC50,[34],2 µg/mL
same,MIC90,[34],32 µg/mL
same,MIC50,[35],1 µg/mL
same,MIC90,[35],4 µg/mL
same,MIC50,[36],0.5 µg/mL
same,MIC90,[36],1 µg/mL
same,MIC50,[37],2 µg/mL
same,MIC90,[37],32 µg/mL
same,MIC50,[38],2 µg/mL
same,MIC90,[38],4 µg/mL
same,MIC50,[39],0.5 µg/mL
same,MIC90,[39],1 µg/mL
same,MIC50,[40],2 µg/mL
same,MIC90,[40],32 µg/mL
same,MIC50,[41],0.5 µg/mL
same,MIC90,[41],4 µg/mL
same,MIC,[42],0.25 µg/mL
same,MIC50,[42],0.25 µg/mL
same,MIC90,[42],0.5 µg/mL
same,MIC50,[43],2 µg/mL
same,MIC90,[43],32 µg/mL
same,MIC50,[44],2 µg/mL
same,MIC90,[44],32 µg/mL
same,MIC50,[45],2 µg/mL
same,MIC90,[45],32 µg/mL
same,MIC50,[46],2 µg/mL
same,MIC90,[46],32 µg/mL
same,MIC50,[47],2 µg/mL
same,MIC90,[47],4 µg/mL
